What was measured:
AML cells = assay: Mitogenic response to VEGF in AML cells; assay type: cell-based
From the text: (§1) The pharmacological effects of 3-(3,4-dimethoxy-phenyl)-3-(1-oxo-1,3-dihydro-isoindol-2-yl)-propionamide derive from its action as an inhibitor of cellular response to receptor-initiated trophic signals (e.g., IGF-1, VEGF, cyclooxygenase-2), and other activities.

[1] = system: MDS bone marrow progenitor; assay: MDS vs normal bone marrow progenitor formation in pre-clinical models; assay type: cell-based
From the text: as §1

[2] = system: production of various cytokines; assay: In vitro studies of pharmacological activity profile and cytokine production; assay type: cell-based, human
Procedure: The pharmacological properties of 3-(3,4-dimethoxy-phenyl)-3-(1-oxo-1,3-dihydro-isoindol-2-yl)-propionamide, including activity comparisons with thalidomide, are characterized in in vitro studies. Studies examine the effects of 3-(3,4-dimethoxy-phenyl)-3-(1-oxo-1,3-dihydro-isoindol-2-yl)-propionamide on the production of various cytokines. In addition, a safety pharmacology study of -(3,4-dimethoxy-phenyl)-3-(1-oxo-1,3-dihydro-isoindol-2-yl)-propionamide is conducted in dogs and the effects of the compound on ECG parameters are examined further as part of three repeat-dose toxicity studies in primates.
Inhibition of TNF-α production following LPS-stimulation of human PBMC and human whole blood by 3-(3,4-dimethoxy-phenyl)-3-(1-oxo-1,3-dihydro-isoindol-2-yl)-propionamide is investigated in vitro (Muller et al., Bioorg. Med. Chem. Lett. 9:1625-1630, 1999). The IC50's of 3-(3,4-dimethoxy-phenyl)-3-(1-oxo-1,3-dihydro-isoindol-2-yl)-propionamide for inhibiting production of TNF-α following LPS-stimulation of PBMC and human whole blood is measured.
as §1

angiogenic response = assay: In vitro pharmacology: angiogenic response; assay type: cell-based
From the text: as §1

[3] = system: adhesion molecules and apoptosis inhibitory proteins (e.g., cFLIP, cIAP); assay: In vitro pharmacology: adhesion molecules and apoptosis inhibitory proteins; assay type: cell-based
From the text: as §1

[4] = system: death-receptor initiated programmed cell death; assay: In vitro pharmacology: death-receptor initiated programmed cell death; assay type: cell-based
From the text: as §1

MDS patients = conditions: cited from earlier work

## COc1ccc(C(CC(N)=O)N2Cc3ccccc3C2=O)cc1OC (stereo not drawn) [3-(3,4-dimethoxy-phenyl)-3-(1-oxo-1,3-dihydro-isoindol-2-yl)-propionamide]
AML cells
  mitogenic response to VEGF: abrogates mitogenic response to VEGF
AML cells; VEGF
  ligand-induced Akt-phosphorylation: extinguishing ligant-induced Akt-phosphorylation
[1]
  MDS vs normal bone marrow progenitor formation: selectively suppresses MDS vs normal bone marrow progenitor formation
[2]
  generation of inflammatory cytokines: suppresses the generation of inflammatory cytokines
Angiogenic response
  angiogenic response: suppresses angiogenic response
[3]
  adhesion molecules and apoptosis inhibitory proteins (e.g., cFLIP, cIAP): down-regulates adhesion molecules and apoptosis inhibitory proteins
[4]
  sensitivity to death-receptor initiated programmed cell death: promotes sensitivity to death-receptor initiated programmed cell death

## recombinant human EPO: erythropoietin (EPO), hematopoietic growth factor
MDS patients
  patients with sustained improvement in hemoglobin or decrease in transfusion requirement: less than 25%

## recombinant human GM-CSF: granulocyte macrophage colony stimulating factor (GM-CSF)
MDS patients
  granulocytopoiesis in treated patients: can restore granulocytopoiesis
  improvement in hemoglobin or platelet counts: little or no improvement

B1: G-CSF: granulocyte colony stimulating factor (G-CSF) (protein, UniProt P09919 31-207, looked up)
Granulocyte …: TPLGPASSLPQSFLLKCLEQVRKIQGDGAALQEKLVSECATYKLCHPEELVLLGHSLGIPWAPLSSCPSQALQLAGCLSQLHSGLFLYQGLLQALEGISPELGPTLDTLQLDVADFATTIWQQMEELGMAPALQPTQGAMPAFASAFQRRAGGVLVASHLQSFLEVSYRVLRHLAQP
MDS patients
  granulocytopoiesis in treated patients: can restore granulocytopoiesis
  improvement in hemoglobin or platelet counts: little or no improvement
